Experimental data as given in patent US20170151221A1, “PHARMACEUTICAL COMPOSITIONS COMPRISING CEFEPIME OR SULBACTAM” (priority 2014, published 2017).
Where two headings read alike, the source gives them in different places.

How the values were obtained:
[1] = system: A. baumannii NCTC 13302 [OXA 51, OXA 25]; experiment: MIC by agar dilution (Muller Hinton Agar, CLSI); type: cell-based; conditions: Acinetobacter baumannii, NCTC13302, A. baumannii NCTC 13302
Procedure: (§1) The antibacterial activity of combinations according to the invention was investigated against various bacterial strains. In a typical study, minimum inhibitory concentrations (MIC) were determined using Muller Hinton Agar (MHA) (BD, USA) according to Clinical and Laboratory Standards Institute (CLSI) recommendations, (Clinical and Laboratory Standards Institute (CLSI), Performance Standards for Antimicrobial Susceptibility Testing, 20th Informational Supplement, M 100-S20, Volume 30, No. 1, 2010). In short, the inocula were adjusted to deliver about 10^4 colony forming units (CFU) per spot with a multipoint inoculator (Applied Quality Services, UK). The plates were pored with doubling concentration range of the test combinations according to invention containing MHA. The plates were inoculated and were incubated at 35° C. for 18 hours.

[2] = system: A. baumannii S 8 [OXA 51, OXA 23]; experiment: MIC by agar dilution (Muller Hinton Agar, CLSI); type: cell-based; conditions: Acinetobacter baumannii, A. baumannii S 8
Procedure: as §1

[3] = system: A. baumannii 1449880 [OXA 51, OXA 23]; experiment: MIC by agar dilution (Muller Hinton Agar, CLSI); type: cell-based; conditions: Acinetobacter baumannii, A. baumannii 1449880
Procedure: as §1

[4] = system: A. baumannii NCTC 13304 [OXA 51, OXA 27]; experiment: MIC by agar dilution (Muller Hinton Agar, CLSI); type: cell-based; conditions: Acinetobacter baumannii, NCTC13304, A. baumannii NCTC 13304
Procedure: as §1

[5] = system: A. baumannii J 145 [OXA 51, OXA 24]; experiment: MIC by agar dilution (Muller Hinton Agar, CLSI); type: cell-based; conditions: Acinetobacter baumannii, A. baumannii J 145
Procedure: as §1

[6] = system: A. baumannii 1363934 [OXA 51, OXA 23]; experiment: MIC by agar dilution (Muller Hinton Agar, CLSI); type: cell-based; conditions: Acinetobacter baumannii, A. baumannii 1363934
Procedure: as §1

[7] = system: Acinetobacter baumannii NCTC 13302 producing carbapenemase hydrolyzing OXA 25 enzyme; experiment: Time kill study; type: cell-based; conditions: for Effect on bacterial count throughout the duration of the study (in words): cefepime, sulbactam, imipenem at 8 mcg/ml, compound of Formula (I) at 4 mcg/ml, alone or in combination
Procedure: (§2) The synergistic killing effect of the combinations according to invention was studied by performing typical time kill studies. Typically, freshly grown cultures were diluted to the required cell density (initial starting inoculum) in Cation adjusted Muller Hinton broth medium (BD, USA). The antibacterial agents at the required concentrations were added into the culture-containing medium either alone or in combination. The samples were incubated under shaking condition (120 rpm) at 37° C. Enumeration of viable bacterial count was undertaken, every 2 hour, by diluting in normal saline and plating on to the Tryptic Soya Agar plates (BD, USA). The plates were incubated for 24 hours to arrive at the viable bacterial count. […] The decrease of 1 Log CFU/ml, after administration of combination of present invention, in comparison to initial bacterial count corresponds to 90% killing of bacteria. Similarly, 2 Log CFU/ml reductions corresponds to 99% killing of bacteria and 3 Log CFU/ml reductions is equal to 99.9% killing of bacteria.
(§3) The assay without any antibacterial agent was taken as control.

[8] = system: Acinetobacter baumannii NCTC 13301 producing Carbapenemase hydrolyzing OXA 23 enzyme; experiment: Time kill study; type: cell-based; conditions: for Effect on bacterial count throughout the duration of the study (in words): cefepime, sulbactam, imipenem at 8 mcg/ml, compound of Formula (I) at 4 mcg/ml, alone or in combination
Procedure: as §2, §3

[9] = system: carbapenam hydrolyzing (CHDL) and oxacillinases (OXA) producing Acinetobactor strains; experiment: Antibacterial activity, summary statements over Tables 1-3; type: cell-based, Acinetobacter baumannii; conditions: for Antibacterial effect against highly resistant strains of A. baumannii (in words): summary of Tables 1-3
Procedure: as §1, §2

[10] = with Compound of Formula (I) at 4 mcg/ml, read-out: MIC (mcg/ml) in presence of Compound of Formula (I) at 4 mcg/ml
[11] = with Compound of Formula (I) at 8 mcg/ml, read-out: MIC (mcg/ml) in presence of Compound of Formula (I) at 8 mcg/ml
[12] = 0 hours, agent alone at 8 mcg/ml
[13] = 2 hours, agent alone at 8 mcg/ml
[14] = 4 hours, agent alone at 8 mcg/ml
[15] = 6 hours, agent alone at 8 mcg/ml
[16] = 8 hours, agent alone at 8 mcg/ml
[17] = 0 hours, agent alone at 4 mcg/ml
[18] = 2 hours, agent alone at 4 mcg/ml
[19] = 4 hours, agent alone at 4 mcg/ml
[20] = 6 hours, agent alone at 4 mcg/ml
[21] = 8 hours, agent alone at 4 mcg/ml

**Q.** `CO/N=C(\C(=O)N[C@@H]1C(=O)N2C(C(=O)[O-])=C(C[N+]3(C)CCCC3)CS[C@H]12)c1csc(N)n1` [Cefepime] was tested. Which MIC ([1]; agent alone, read-out: MIC) did it give?
**A.** Its MIC is 32 µg/mL.

**Q.** And the MIC [1, 10]?
**A.** Its MIC is 8 µg/mL.

**Q.** And the MIC [1, 11]?
**A.** Its MIC is 8 µg/mL.

**Q.** And the MIC ([2]; agent alone, read-out: MIC)?
**A.** Its MIC is > 32 µg/mL.

**Q.** What about the MIC [2, 10] of the same compound?
**A.** The MIC was 8 µg/mL.

**Q.** What about the MIC [2, 11] of the same compound?
**A.** The MIC was 8 µg/mL.

**Q.** And the MIC ([3]; agent alone, read-out: MIC)?
**A.** Its MIC is > 32 µg/mL.

**Q.** And the MIC [3, 10]?
**A.** Its MIC is 2 µg/mL.

**Q.** What about the MIC [3, 11] of the same compound?
**A.** Its MIC is 2 µg/mL.

**Q.** And the MIC ([4]; agent alone, read-out: MIC)?
**A.** The MIC was 32 µg/mL.

**Q.** What about the MIC [4, 10] of the same compound?
**A.** Its MIC is 8 µg/mL.

**Q.** And the MIC [4, 11]?
**A.** The MIC was 4 µg/mL.

**Q.** What about the MIC ([5]; agent alone, read-out: MIC) of the same compound?
**A.** The MIC was 32 µg/mL.

**Q.** And the MIC [5, 10]?
**A.** Its MIC is 16 µg/mL.

**Q.** And the MIC [5, 11]?
**A.** Its MIC is 8 µg/mL.

**Q.** And the MIC ([6]; agent alone, read-out: MIC)?
**A.** Its MIC is > 32 µg/mL.

**Q.** And the MIC [6, 10]?
**A.** Its MIC is 16 µg/mL.

**Q.** And the MIC [6, 11]?
**A.** Its MIC is 8 µg/mL.

**Q.** What about the “Bacterial count (Log10 CFU/ml)” value [7, 12] of the same compound?
**A.** The value was 6.30 Log10 CFU/ml.

**Q.** And the “Bacterial count (Log10 CFU/ml)” value [7, 13]?
**A.** The value was 7.740 Log10 CFU/ml.

**Q.** And the “Bacterial count (Log10 CFU/ml)” value [7, 14]?
**A.** Its value is 7.929 Log10 CFU/ml.

**Q.** And the “Bacterial count (Log10 CFU/ml)” value [7, 15]?
**A.** The value was 7.662 Log10 CFU/ml.

**Q.** What about the “Bacterial count (Log10 CFU/ml)” value [7, 16] of the same compound?
**A.** The value was 7.56 Log10 CFU/ml.

**Q.** And the “Effect on bacterial count throughout the duration of the study (in words)” value (“Effect … of the study (in words)” below) ([7]; 8 hours)?
**A.** The value was “not effective to decrease the bacterial count”.

**Q.** And the “Bacterial count (Log10 CFU/ml)” value [8, 12]?
**A.** Its value is 6.32 Log10 CFU/ml.

**Q.** What about the “Bacterial count (Log10 CFU/ml)” value [8, 13] of the same compound?
**A.** The value was 8.26 Log10 CFU/ml.

**Q.** What about the “Bacterial count (Log10 CFU/ml)” value [8, 14] of the same compound?
**A.** Its value is 8.06 Log10 CFU/ml.

**Q.** What about the “Bacterial count (Log10 CFU/ml)” value [8, 15] of the same compound?
**A.** Its value is 8.26 Log10 CFU/ml.

**Q.** And the “Bacterial count (Log10 CFU/ml)” value [8, 16]?
**A.** The value was 8.13 Log10 CFU/ml.

**Q.** And the “Effect … of the study (in words)” value ([8]; 8 hours)?
**A.** The value was “not effective to decrease the bacterial count”.

**Q.** And the “Change of MIC values in the presence of compound of Formula (I) (in words)” value ([9]; Table 1 strains, compound of Formula (I) at 4 or 8 mcg/ml)?
**A.** The value was “significantly decreased”.

**Q.** What about the “Antibacterial effect against highly resistant strains of A. baumannii (in words)” value [9] of the same compound?
**A.** Its value is “ineffective”.

**Q.** `O=C(NNC(=O)[C@@H]1CC[C@@H]2CN1C(=O)N2OS(=O)(=O)O)[C@@H]1CCNC1` [Compound of Formula (I), trans-sulfuric acid mono-[2-(N′-[(R)-pyrrolidin-3-carbonyl]-hydrazinocarbonyl)-7-oxo-1,6-diaza-bicyclo[3.2.1]oct-6-yl] ester] was tested. Which MIC ([1]; agent alone, read-out: MIC) did it give?
**A.** The MIC was > 128 µg/mL.

**Q.** And the MIC ([2]; agent alone, read-out: MIC)?
**A.** Its MIC is > 128 µg/mL.

**Q.** And the MIC ([3]; agent alone, read-out: MIC)?
**A.** Its MIC is > 128 µg/mL.

**Q.** What about the MIC ([4]; agent alone, read-out: MIC) of the same compound?
**A.** The MIC was > 128 µg/mL.

**Q.** What about the MIC ([5]; agent alone, read-out: MIC) of the same compound?
**A.** The MIC was > 128 µg/mL.

**Q.** And the MIC ([6]; agent alone, read-out: MIC)?
**A.** The MIC was > 128 µg/mL.

**Q.** What about the “Bacterial count (Log10 CFU/ml)” value [7, 17] of the same compound?
**A.** Its value is 6.30 Log10 CFU/ml.

**Q.** And the “Bacterial count (Log10 CFU/ml)” value [7, 18]?
**A.** The value was 7.903 Log10 CFU/ml.

**Q.** And the “Bacterial count (Log10 CFU/ml)” value [7, 19]?
**A.** Its value is 7.845 Log10 CFU/ml.

**Q.** What about the “Bacterial count (Log10 CFU/ml)” value [7, 20] of the same compound?
**A.** Its value is 7.875 Log10 CFU/ml.

**Q.** And the “Bacterial count (Log10 CFU/ml)” value [7, 21]?
**A.** Its value is 8.04 Log10 CFU/ml.

**Q.** What about the “Effect … of the study (in words)” value ([7]; 8 hours) of the same compound?
**A.** Its value is “not effective to decrease the bacterial count”.

**Q.** And the “Bacterial count (Log10 CFU/ml)” value [8, 17]?
**A.** Its value is 6.32 Log10 CFU/ml.

**Q.** What about the “Bacterial count (Log10 CFU/ml)” value [8, 18] of the same compound?
**A.** Its value is 8.02 Log10 CFU/ml.

**Q.** What about the “Bacterial count (Log10 CFU/ml)” value [8, 19] of the same compound?
**A.** The value was 8.36 Log10 CFU/ml.

**Q.** What about the “Bacterial count (Log10 CFU/ml)” value [8, 20] of the same compound?
**A.** Its value is 8.35 Log10 CFU/ml.

**Q.** And the “Bacterial count (Log10 CFU/ml)” value [8, 21]?
**A.** Its value is 8.39 Log10 CFU/ml.

**Q.** And the “Effect … of the study (in words)” value ([8]; 8 hours)?
**A.** Its value is “not effective to decrease the bacterial count”.

**Q.** And the “Antibacterial effect against highly resistant strains of A. baumannii (in words)” value [9]?
**A.** The value was “ineffective”.

**Q.** What does the source list for `C[C@@H](O)[C@H]1C(=O)N2C(C(=O)O)=C(SCCN=CN)C[C@H]12` [Imipenem]?
**A.** MIC ([1]; agent alone, read-out: MIC): > 32 µg/mL; MIC ([2]; agent alone, read-out: MIC): 16 µg/mL; MIC ([3]; agent alone, read-out: MIC): 8 µg/mL; MIC ([4]; agent alone, read-out: MIC): > 32 µg/mL; MIC ([5]; agent alone, read-out: MIC): > 32 µg/mL; MIC ([6]; agent alone, read-out: MIC): > 32 µg/mL; Bacterial count (Log10 CFU/ml) [7, 12]: 6.30 Log10 CFU/ml; Bacterial count (Log10 CFU/ml) [7, 13]: 8.079 Log10 CFU/ml; Bacterial count (Log10 CFU/ml) [7, 14]: 8.703 Log10 CFU/ml; Bacterial count (Log10 CFU/ml) [7, 15]: 8.176 Log10 CFU/ml; Bacterial count (Log10 CFU/ml) [7, 16]: 8.38 Log10 CFU/ml; Bacterial count (Log10 CFU/ml) [8, 12]: 6.32 Log10 CFU/ml; Bacterial count (Log10 CFU/ml) [8, 13]: 8.20 Log10 CFU/ml; Bacterial count (Log10 CFU/ml) [8, 14]: 8.43 Log10 CFU/ml; Bacterial count (Log10 CFU/ml) [8, 15]: 8.43 Log10 CFU/ml; Bacterial count (Log10 CFU/ml) [8, 16]: 8.51 Log10 CFU/ml
